In brackets after ≈: the same amount, converted by molar mass.
Assays:
[1] = test system: HeLa; test: In vitro effective dose for its cytostatic activity against HeLa cells.; format: functional; details: Homo sapiens, read-out: ED50 (the source's name)
[2] = Compound was evaluated for the protonation constant by binding to DNA by intercalation in calf thymus.; format: ADME, Bos taurus; details: cattle

Row | SMILES | EC50 [1] | pKa [2]
1 | CN(C)CCCNc1nnc(NCCCN(C)C)c2cc3ccccc3cc12 | 1.25 µg/mL (≈ 3.28 µM) | 6.2
2 | COCCCNc1nnc(NCCCOC)c2cc3ccccc3cc12 | 10 µg/mL (≈ 28.2 µM) | 8.3
3 | COc1cc(NS(C)(=O)=O)ccc1Nc1c2ccccc2nc2ccccc12 [AMSACRINE] | – | 7.4
4 | OCCCNc1nnc(NCCCO)c2cc3ccccc3cc12 | 25 µg/mL (≈ 76.6 µM) | 8.3
